Columns and labels:
Conditions in all cases: exposure time: 90 min
1309 = donor line of iPSC-derived cardiomyocytes; assay: POD (EC05) for decrease in beat frequency (negative chronotrope) vs vehicle; higher = less potent (higher point of departure)
Description: (§1)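 Human iPSC-derived cardiomyocytes from 16 donors were exposed for 90 min at 37 °C to each PFAS at 0.1, 1, 10 and 100 µM in 0.5% DMSO, 384-well plates. Kinetic Ca2+ flux (FLIPR) and Hoechst nuclei counts were normalised to vehicle wells and fitted with a hierarchical Bayesian Hill model to give donor-specific PODs: EC05 for beat-rate increase or decrease and for decay-to-rise ratio increase (QT proxy), EC95 for peak-frequency loss (asystole), EC10 for total cell number loss. 0.03 µM is the lower bound.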

1518 = donor line of iPSC-derived cardiomyocytes; assay: as above
Description: as §1

20032 = donor line of iPSC-derived cardiomyocytes; assay: as above
Description: as §1

1083 = donor line of iPSC-derived cardiomyocytes; assay: as above
Description: as §1

1434 [1] = donor line of iPSC-derived cardiomyocytes; assay: as above
Description: as §1

30145 = donor line of iPSC-derived cardiomyocytes; assay: as above
Description: as §1

1392 = donor line of iPSC-derived cardiomyocytes; assay: as above
Description: as §1

1535 = donor line of iPSC-derived cardiomyocytes; assay: as above
Description: as §1

30171 [2] = donor line of iPSC-derived cardiomyocytes; assay: as above
Description: as §1

11235 [3] = donor line of iPSC-derived cardiomyocytes; assay: as above
Description: as §1

1368 [4] = donor line of iPSC-derived cardiomyocytes; assay: as above
Description: as §1

1516 = donor line of iPSC-derived cardiomyocytes; assay: as above
Description: as §1

1565 [5] = donor line of iPSC-derived cardiomyocytes; assay: as above
Description: as §1

1531 = donor line of iPSC-derived cardiomyocytes; assay: as above
Description: as §1

20084 = donor line of iPSC-derived cardiomyocytes; assay: as above
Description: as §1

1434 [6] = assay: POD (EC05) for increase in Ca2+ transient decay-to-rise ratio (QT prolongation) vs vehicle; higher = less potent (higher point of departure)
Outline: (§2)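 Ca2+ flux in human iPSC-derived cardiomyocytes from 16 donors was recorded on a FLIPR Tetra for 100 s before and after a 90 min exposure at 37 °C to 0.1, 1, 10 and 100 µM (final, 0.5% DMSO). Donor-specific points of departure came from hierarchical Bayesian Hill fits to vehicle-normalised beat frequency, decay-to-rise ratio or peak frequency. A 5% change served as threshold, except for peak frequency, where it was a 95% loss.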

30171 [7] = assay: as above
Outline: as §2

11235 [8] = assay: as above
Outline: as §2

1368 [9] = assay: as above
Outline: as §2

1565 [10] = assay: as above
Outline: as §2

SMILES | POD vs vehicle 1309 | POD vs vehicle 1518 | POD vs vehicle 20032 | POD vs vehicle 1083 | POD vs vehicle 1434 [1] | POD vs vehicle 30145 | POD vs vehicle 1392 | POD vs vehicle 1535 | POD vs vehicle 30171 [2] | POD vs vehicle 11235 [3] | POD vs vehicle 1368 [4] | POD vs vehicle 1516 | POD vs vehicle 1565 [5] | POD vs vehicle 1531 | POD vs vehicle 20084 | POD vs vehicle 1434 [6] | POD vs vehicle 30171 [7] | POD vs vehicle 11235 [8] | POD vs vehicle 1368 [9] | POD vs vehicle 1565 [10]
O=C([O-])C(F)(F)C(F)(F)C(F)(F)C(F)(F)C(F)(F)C(F)(F)C(F)(F)F.[NH4+] [Ammonium_perfluorooctanoate] | > 100 µM | 87.3 µM | 79.9 µM | > 100 µM | 46.1 µM | > 100 µM | > 100 µM | 43.5 µM | 7.16 µM | 4.51 µM | > 100 µM | 58.4 µM | > 100 µM | 18.9 µM | > 100 µM | > 100 µM | > 100 µM | > 100 µM | > 100 µM | > 100 µM
OCC(O)CC(F)(F)C(F)(F)C(F)(F)C(F)(F)C(F)(F)C(F)(F)C(F)(F)C(F)(F)F (stereo not given) [1-(Perfluorofluorooctyl)propane-2,3-diol] | > 100 µM | > 100 µM | > 100 µM | 24.4 µM | > 100 µM | > 100 µM | > 100 µM | > 100 µM | > 100 µM | > 100 µM | > 100 µM | > 100 µM | > 100 µM | > 100 µM | > 100 µM | > 100 µM | > 100 µM | > 100 µM | > 100 µM | > 100 µM
OCC(F)(F)C(F)(F)C(F)(F)C(F)(F)C(F)(F)C(F)(F)F [6:1 Fluorotelomer alcohol] | > 100 µM | > 100 µM | > 100 µM | 24.6 µM | 21.9 µM | > 100 µM | > 100 µM | > 100 µM | 24.3 µM | 21.5 µM | 74.9 µM | > 100 µM | > 100 µM | > 100 µM | > 100 µM | > 100 µM | > 100 µM | > 100 µM | > 100 µM | > 100 µM
O=S(=O)(O)C(F)(F)C(F)(F)C(F)(F)C(F)(F)C(F)(F)C(F)(F)C(F)(F)C(F)(F)F [Perfluorooctanesulfonic_acid] | > 100 µM | > 100 µM | > 100 µM | > 100 µM | 13.3 µM | > 100 µM | > 100 µM | > 100 µM | 6.94 µM | 0.581 µM | > 100 µM | 20.4 µM | > 100 µM | 59.1 µM | 80.7 µM | > 100 µM | > 100 µM | > 100 µM | > 100 µM | > 100 µM
OCCC(F)(F)C(F)(F)C(F)(F)C(F)(F)C(F)(F)C(F)(F)C(F)(F)C(F)(F)F [8:2 Fluorotelomer alcohol] | > 100 µM | > 100 µM | > 100 µM | > 100 µM | > 100 µM | > 100 µM | > 100 µM | > 100 µM | > 100 µM | > 100 µM | > 100 µM | > 100 µM | > 100 µM | > 100 µM | > 100 µM | > 100 µM | > 100 µM | > 100 µM | > 100 µM | > 100 µM
O=C(O)C(F)(F)C(F)(F)C(F)(F)OC(F)(C(F)(F)F)C(F)(F)F [Perfluoro-4-isopropoxybutanoic_acid] | > 100 µM | > 100 µM | > 100 µM | > 100 µM | > 100 µM | > 100 µM | > 100 µM | > 100 µM | > 100 µM | > 100 µM | > 100 µM | > 100 µM | > 100 µM | > 100 µM | > 100 µM | > 100 µM | > 100 µM | > 100 µM | > 100 µM | > 100 µM
O=C(O)C(F)(F)C(F)(F)C(F)(F)C(F)(F)C(F)(F)F [Perfluorohexanoic_acid] | > 100 µM | > 100 µM | > 100 µM | > 100 µM | > 100 µM | > 100 µM | > 100 µM | > 100 µM | > 100 µM | > 100 µM | > 100 µM | > 100 µM | > 100 µM | > 100 µM | > 100 µM | > 100 µM | > 100 µM | > 100 µM | > 100 µM | > 100 µM
O=S(=O)(O)CCC(F)(F)C(F)(F)C(F)(F)C(F)(F)C(F)(F)C(F)(F)F [6:2 Fluorotelomer sulfonic acid] | > 100 µM | 42.6 µM | > 100 µM | > 100 µM | > 100 µM | > 100 µM | > 100 µM | > 100 µM | 24.5 µM | 6.84 µM | > 100 µM | 33.5 µM | 39.6 µM | 25.1 µM | > 100 µM | > 100 µM | > 100 µM | > 100 µM | > 100 µM | > 100 µM
O=C(O)CCC(F)(F)C(F)(F)C(F)(F)C(F)(F)C(F)(F)F [2H,2H,3H,3H-Perfluorooctanoic_acid] | 37.7 µM | > 100 µM | 29.8 µM | 39.6 µM | 23.8 µM | 22.2 µM | 20.4 µM | 75.1 µM | 21.8 µM | 16.9 µM | > 100 µM | 21.1 µM | > 100 µM | 24.9 µM | 20 µM | > 100 µM | > 100 µM | > 100 µM | > 100 µM | > 100 µM
NC(=O)C(F)(F)C(F)(F)C(F)(F)C(F)(F)F [Nonafluoropentanamide] | > 100 µM | > 100 µM | > 100 µM | > 100 µM | > 100 µM | > 100 µM | > 100 µM | > 100 µM | > 100 µM | > 100 µM | > 100 µM | > 100 µM | > 100 µM | > 100 µM | > 100 µM | 0.357 µM | > 100 µM | > 100 µM | > 100 µM | > 100 µM
O=C(O)C(F)(F)C(F)(F)OC(F)(F)F [Perfluoro-3-methoxypropanoic_acid] | > 100 µM | > 100 µM | > 100 µM | > 100 µM | > 100 µM | > 100 µM | > 100 µM | > 100 µM | > 100 µM | > 100 µM | > 100 µM | > 100 µM | > 100 µM | > 100 µM | > 100 µM | > 100 µM | > 100 µM | > 100 µM | > 100 µM | > 100 µM
O=C(O)C(F)(F)C(F)(F)C(F)(F)OC(F)(F)F [Perfluoro(4-methoxybutanoic)_acid] | > 100 µM | > 100 µM | > 100 µM | > 100 µM | > 100 µM | > 100 µM | > 100 µM | > 100 µM | > 100 µM | > 100 µM | > 100 µM | > 100 µM | > 100 µM | > 100 µM | > 100 µM | > 100 µM | > 100 µM | > 100 µM | > 100 µM | > 100 µM
O=S(=O)(O)CCC(F)(F)C(F)(F)C(F)(F)C(F)(F)F [4:2 Fluorotelomer sulfonic acid] | > 100 µM | > 100 µM | > 100 µM | > 100 µM | > 100 µM | > 100 µM | > 100 µM | > 100 µM | > 100 µM | > 100 µM | > 100 µM | > 100 µM | > 100 µM | > 100 µM | > 100 µM | > 100 µM | > 100 µM | > 100 µM | > 100 µM | > 100 µM
O=P(O)(O)CCC(F)(F)C(F)(F)C(F)(F)C(F)(F)C(F)(F)C(F)(F)C(F)(F)C(F)(F)F [((Perfluorooctyl)ethyl)phosphonic_acid] | > 100 µM | > 100 µM | > 100 µM | > 100 µM | > 100 µM | > 100 µM | > 100 µM | > 100 µM | > 100 µM | > 100 µM | > 100 µM | > 100 µM | > 100 µM | > 100 µM | > 100 µM | > 100 µM | > 100 µM | > 100 µM | > 100 µM | > 100 µM
OCCC(F)(F)C(F)(F)C(F)(F)C(F)(F)C(F)(F)C(F)(F)F [6:2 Fluorotelomer alcohol] | > 100 µM | > 100 µM | > 100 µM | 58.7 µM | > 100 µM | > 100 µM | > 100 µM | > 100 µM | > 100 µM | > 100 µM | > 100 µM | > 100 µM | > 100 µM | > 100 µM | > 100 µM | > 100 µM | > 100 µM | > 100 µM | > 100 µM | > 100 µM
O=C(O)C(F)(F)C(F)(F)F [Perfluoropropanoic_acid] | > 100 µM | > 100 µM | > 100 µM | > 100 µM | > 100 µM | > 100 µM | > 100 µM | > 100 µM | > 100 µM | > 100 µM | > 100 µM | > 100 µM | > 100 µM | > 100 µM | > 100 µM | > 100 µM | > 100 µM | > 100 µM | > 100 µM | > 100 µM
O=C(O)C(F)(F)C(F)(F)C(F)(F)F [Perfluorobutanoic_acid] | > 100 µM | > 100 µM | > 100 µM | > 100 µM | > 100 µM | > 100 µM | > 100 µM | > 100 µM | > 100 µM | > 100 µM | > 100 µM | > 100 µM | > 100 µM | > 100 µM | > 100 µM | > 100 µM | > 100 µM | > 100 µM | > 100 µM | > 100 µM
NC(=O)C(F)(F)C(F)(F)C(F)(F)C(F)F | > 100 µM | > 100 µM | > 100 µM | > 100 µM | > 100 µM | > 100 µM | > 100 µM | > 100 µM | > 100 µM | > 100 µM | > 100 µM | > 100 µM | > 100 µM | > 100 µM | > 100 µM | 0.543 µM | 17 µM | > 100 µM | > 100 µM | 1.78 µM
CN(CCO)S(=O)(=O)C(F)(F)C(F)(F)C(F)(F)C(F)(F)C(F)(F)C(F)(F)C(F)(F)C(F)(F)F [N-Methyl-N-(2-hydroxyethyl)perfluorooctanesulfonamide] | > 100 µM | > 100 µM | > 100 µM | 16.9 µM | 42.2 µM | > 100 µM | > 100 µM | > 100 µM | 20.2 µM | 35.4 µM | > 100 µM | > 100 µM | > 100 µM | > 100 µM | > 100 µM | > 100 µM | > 100 µM | > 100 µM | > 100 µM | > 100 µM
